Results as given in patent publication US12065648B2, “Methods and compositions for inhibiting detoxification response” (priority 2015, dated 2024).

Assays:
[1] = test system: pgp-9 transcriptional GFP fusion gene; experiment: Transcriptional GFP fusion gene induction: pgp-9; assay type: in vivo, C. elegans; details: n = 20
Procedure: (§1) G418 (GoldBio) or hygromycin (GoldBio) was diluted in M9 to the desired concentration and added onto preseeded OP50 E. coli bacteria containing NGM plates. The plates were dried uncovered in the hood for at least 1 hour before seeding the worms. For the drug experiments, synchronized L1-stage animals were dropped onto the drug containing plates and scored later. For drug resistance assays synchronized L1 larval stage animals of the appropriate genotype were fed with either control RNAi or with RNAi clones targeting bile acid biosynthetic pathways until they reach day two of adulthood. Subsequently, the RNAi-treated animals were egg-prepped to obtain synchronized L1 larvae. ˜100 L1 larvae were added to the plates containing G418. 100 nM of Δ^4-Dafachronic Acid or (25S)-Δ^7-Dafachronic Acid from Cayman Chemical were used.
(§2) Nematodes were mounted onto agar pads and images were taken using a Zeiss AXIO Imager Z1 microscope fitted with a Zeiss AxioCam HRm camera and Axiovision 4.6 (Zeiss) software. Fluorescent images were converted to 16-bit images, thresholded and quantified using ImageJ. Student's t test was used determine statistical significance. […]

[2] = test system: pgp-3 transcriptional GFP fusion gene; experiment: Transcriptional GFP fusion gene induction: pgp-3; assay type: in vivo, C. elegans; details: n = 20
Procedure: as §1, §2

[3] = test system: mrp-2 transcriptional GFP fusion gene; experiment: Transcriptional GFP fusion gene induction: mrp-2; assay type: in vivo, C. elegans; details: n = 20
Procedure: as §1, §2

[4] = test system: pgp-6 transcriptional GFP fusion gene; experiment: Transcriptional GFP fusion gene induction: pgp-6; assay type: in vivo, C. elegans; details: n = 20
Procedure: as §1, §2

[5] = test system: ugt-58 transcriptional GFP fusion gene; experiment: Transcriptional GFP fusion gene induction: ugt-58; assay type: in vivo, C. elegans; details: n = 20
Procedure: as §1, §2

[6] = test system: C. elegans; experiment: Drug resistance assay (G418 or hygromycin) after RNAi; assay type: in vivo; details: control RNAi treated wildtype animals; 0.2 mg/ml G418
Procedure: as §1

[7] = test system: dhs-9 transcriptional GFP fusion gene; experiment: Transcriptional GFP fusion gene induction: dhs-9; assay type: in vivo, C. elegans; details: n = 20
Procedure: as §1, §2

[8] = test system: ugt-61 transcriptional GFP fusion gene; experiment: Transcriptional GFP fusion gene induction: ugt-61; assay type: in vivo, C. elegans; details: n = 20
Procedure: as §1, §2

[9] = test system: cyp-14A3 transcriptional GFP fusion gene; assay type: in vivo, C. elegans; details: n = 20
Procedure: as §1
(§3) Nematodes were mounted onto agar pads and images were taken using a Zeiss AXIO Imager Z1 microscope fitted with a Zeiss AxioCam HRm camera and Axiovision 4.6 (Zeiss) software. Fluorescent images were converted to 16-bit images, thresholded and quantified using ImageJ. Student's t test was used determine statistical significance.
(§4) Inactivation of C. elegans translation components by feeding the animals E. coli expressing specific dsRNAs targeting translation factor mRNAs induces the expression of xenobiotic detoxification genes, bacterial pathogen response genes, and aversion behavior2-4 (FIG. 1A-C; Table 1, 2 and 3). Toxins, such as the eukaryotic translation inhibitors G418 produced by the bacteria Micromonospora rhodorangea5 or hygromycin, produced by the soil bacteria Streptomyces hygroscopicus6 also induce these responses.
(§5) Detoxification responses in animals include, cytochrome P450's (CYPs), UDP-glucuronosyltransferases (UGTs), glutathione S-transferases (GSTs), and p-glycoprotein transporters (PGPs) (FIGS. 1A & 1C; FIG. 6 A-B; Table 1, 2 and 3). We chose a pgp-5::gfp fusion gene for assays of xenobiotic detoxification induction in response to G418 or hygromycin or ribosomal assaults via RNAi (FIGS. 1A & C; FIG. 6 A-B; Table 1, 2 and 3) because of the robust response of this reporter gene and validation of this gene induction from microarray gene expression analysis in response to translational inhibition by toxins or RNAi4.

[10] = test system: cyp-34A9 transcriptional GFP fusion gene; assay type: in vivo, C. elegans; details: n = 20
Procedure: as §1, §3, §4, §5

[11] = test system: cyp-25a2 transcriptional GFP fusion gene; assay type: in vivo, C. elegans; details: n = 20
Procedure: as §1, §3, §4, §5

[12] = test system: cyp-31a3 transcriptional GFP fusion gene; assay type: in vivo, C. elegans; details: n = 20
Procedure: as §1, §3, §4, §5

[13] = test system: cyp-37A1 transcriptional GFP fusion gene; assay type: in vivo, C. elegans; details: n = 20
Procedure: as §1, §3, §4, §5

[14] = test system: cyp-13a7 transcriptional GFP fusion gene; assay type: in vivo, C. elegans; details: n = 20
Procedure: as §1, §3, §4, §5

[15] = test system: cyp-35B1 transcriptional GFP fusion gene; assay type: in vivo, C. elegans; details: n = 20
Procedure: as §1, §3, §4, §5

[16] = test system: pmp-4 transcriptional GFP fusion gene; experiment: Transcriptional GFP fusion gene induction: pmp-4; assay type: in vivo, C. elegans; details: n = 20
[17] = test system: ugt-8 transcriptional GFP fusion gene; experiment: Transcriptional GFP fusion gene induction: ugt-8; assay type: in vivo, C. elegans; details: n = 20
Procedure: as §1, §2

[18] = test system: pgp-5::gfp; experiment: pgp-5::gfp induction in animals without germline translation mutation (toxin, RNAi, bile acids, lipid extracts); assay type: in vivo, C. elegans; details: pgp-5 transcriptional GFP fusion gene; n = 20
Procedure: as §1
Nematodes were mounted onto agar pads and images were taken using a Zeiss AXIO Imager Z1 microscope fitted with a Zeiss AxioCam HRm camera and Axiovision 4.6 (Zeiss) software. Fluorescent images were converted to 16-bit images, thresholded and quantified using ImageJ. […]
RNAi bacteria expressing the dsRNA corresponding to each worm gene were grown in LB media with 25 μg/ml carbenicillin overnight and seeded onto RNAi agar plates containing 1 mM IPTG. […] In the primary screen, the plates were screened visually for changes in GFP fluorescence and worm developmental defects. […]

[19] = test system: abch-1 transcriptional GFP fusion gene; experiment: Transcriptional GFP fusion gene induction: abch-1; assay type: in vivo, C. elegans; details: n = 20
Procedure: as §1, §2

[20] = test system: dhs-19 transcriptional GFP fusion gene; experiment: Transcriptional GFP fusion gene induction: dhs-19; assay type: in vivo, C. elegans; details: n = 20
Procedure: as §1, §2

[21] = test system: haf-7 transcriptional GFP fusion gene; experiment: Transcriptional GFP fusion gene induction: haf-7; assay type: in vivo, C. elegans; details: n = 20
Procedure: as §1, §2

[22] = test system: pgp-4 transcriptional GFP fusion gene; experiment: Transcriptional GFP fusion gene induction: pgp-4; assay type: in vivo, C. elegans; details: n = 20
[23] = test system: ugt-22 transcriptional GFP fusion gene; experiment: Transcriptional GFP fusion gene induction: ugt-22; assay type: in vivo, C. elegans; details: n = 20
Procedure: as §1, §2

[24] = test system: pgp-5::gfp; experiment: pgp-5::gfp induction in germline translation-defective eft-3(q145);pgp-5::gfp strain (RNAi, bile acid rescue, microbes); assay type: in vivo, C. elegans; details: bile acids at 100 uM
From the text: Secondary screens were similarly done on the eft-3(q145):pgp-5::gfp strain.
To explore the types of lipids that the dhs-28. daf-22 pathway generates to regulate the induction of pgp-5::gfp expression in translation-defective animals, we tested whether defects in CAs-28 or daf-22-mediated lipid/bile acid biosynthesis could be rescued for pgp-5::gfp induction by addition of purified mammalian bile acids (FIG. 9B). […] These bile acids preparations are 95% pure.

[25] = test system: C. elegans; experiment: Effect of microbes on C. elegans growth; assay type: in vivo; details: C. elegans grown on the microbe
Procedure: 16S ribosomal sequence was amplified using specific primers and sequenced to identify the microbes. BHI media as well as plates was used for culturing and testing the effect of Enterococcus faecalis and E. faecium on worms. For Saccharomyces boulardi, YPD media was used for growing the yeast and a concentrated culture was added to SK media. For Lactobacillus spp, Lactobacilli broth was used for growing and then a concentrated culture was added to SK media. SK media was used for all the other microbes.
Many of the bacterial strains allowed normal growth of C. elegans, but some caused developmental arrest, perhaps due to toxins or virulence factors that disrupt essential C. elegans processes.

Molecule: CN[C@@H]1[C@@H](O)[C@@H](O[C@@H]2[C@@H](O)[C@H](O[C@H]3O[C@H]([C@@H](C)O)[C@@H](O)[C@H](O)[C@H]3N)[C@@H](N)C[C@H]2N)OC[C@]1(C)O [G418]
- % Animals with gfp induction [1]: 100 (n = 20) %
- % Animals with gfp induction [2]: 0 (n = 20) %
- % Animals with gfp induction [3]: 80 (n = 20) %
- % Animals with gfp induction [4]: 100 (n = 20) %
- % Animals with gfp induction [5]: 0 (n = 20) %
- animals that grew to adulthood [6]: > 40%
- % Animals with gfp induction [7]: 0 (n = 20) %
- % Animals with gfp induction [8]: 0 (n = 20) %
- % Animals with gfp induction [9]: 0 (n = 20) %
- % Animals with gfp induction [10]: 0 (n = 20) %
- % Animals with gfp induction [11]: 0 (n = 20) %
- % Animals with gfp induction [12]: 80 (n = 20) %
- % Animals with gfp induction [13]: 0 (n = 20) %
- % Animals with gfp induction [14]: 0 (n = 20) %
- % Animals with gfp induction [15]: 0 (n = 20) %
- % Animals with gfp induction [16]: 65 (n = 20) %
- % Animals with gfp induction [17]: 0 (n = 20) %
- % Animals with gfp induction [18]: 100 (n = 20) %
- % Animals with gfp induction [19]: 0 (n = 20) %
- % Animals with gfp induction [20]: 0 (n = 20) %
- % Animals with gfp induction [21]: 0 (n = 20) %
- % Animals with gfp induction [22]: 0 (n = 20) %
- % Animals with gfp induction [23]: 0 (n = 20) %

Molecule: C[C@H](CCC(=O)O)[C@H]1CC[C@H]2[C@@H]3[C@H](O)C[C@@H]4C[C@H](O)CC[C@]4(C)[C@H]3CC[C@]12C [chenodeoxycholic acid]
- rescue of the defect in pgp-5::gfp induction caused by daf-22 or dhs-28 gene inactivations [24]: rescued the defect in induction of pgp-5::gfp

Molecule: CC(CCC(=O)NCC(=O)O)C1CCC2C3C(O)CC4CC(O)CCC4(C)C3CCC12C (stereo not drawn) [glycochenodeoxycholic acid]
- rescue of the defect in pgp-5::gfp induction caused by daf-22 or dhs-28 gene inactivations [24]: rescued the defect in induction of pgp-5::gfp

Molecule: Lactobacillus plantarum
- % Animals that reach adulthood [25]: 0%
- developmental outcome on the microbe (arrest stage, slow growth, normal) [25]: slow growth
